Where two headings read alike, the source gives them in different places.
Assays:
β-adrenergic receptors = experiment: Modulation of the activity of β-adrenergic receptors (isoproterenol-induced cAMP synthesis in C6 glioma); type: cell-based; details: rat C6 glioma, cAMP synthesis induced by 5 μM (−) isoproterenol, 30 min; for EFFECT (modulation of the activity of β-adrenergic receptors) / EFFECT: fold activation (modulation of the activity of β-adrenergic receptors): simultaneous addition
Experimental: Mechanism of action of novel compounds is presented on FIG. 2. […] Incubation was at 37° C. in a humidified atmosphere. Assays were performed in the logaritmic growth phase at a density of 2.5×10^5 cells/cm^2. Intracellular cAMP synthesis was induced by addition of 5 μM (−) isoproterenol. After 30 min incubation at 37° C. the medium was removed and the cellular amount of cAMP determined using the cAMP-enzyme immunoassay kit of Amersham. The I50 is determined from a dose-response curve in duplicate. The effect of several novel substituted 6-(2-hydroxybenzylamino)purine derivatives was measured after simultaneous addition with isoproterenol.
As P2Y1-like and A2 purinergic receptors, negatively and positively coupled to adenylate cyclase respectively, are present on rat C6 glioma. It has to be determined if the modulation of the synthesis of cAMP is due to inhibition of the activation of β-adrenergic receptors by isoproterenol are due to activation of purinergic receptors.

p53 = experiment: p53-dependent transcription, β-galactosidase reporter in Arn8 cells; type: cell-based, human; set-up: key to p53 (effect): induction of p53 protein: ++: very strong; +: weak; −: no effect; details: for p53 (effect): induction of p53 protein: Arn8 cells stable transfected with a β-galactosidase reporter gene; for p53 (peak concentration in μM): Arn8 cells, concentration inducing maximum of β-galactosidase activity
From the text: Protein p53, accumulated in nuclei upon treatment by the compounds, then leads to trans-activation of natural cell cycle inhibitor p21^WAF1, further blocking the cell cycle. […] This allows qualitative as well as quantitative measurement of CDK inhibitors-induced p53 transcriptional activity via β-galactosidase assay. Then, the effect will be verified in treated cells by immunoblotting of proteins expressed under the control of p53. β-galactosidase activity of human melanoma cell line Arn8 was determined as described. […] Alternatively, β-galactosidase activity was quantified by measuring fluorescence of methylumbelliferyl-β-D-galactopyranoside cleavage product. Cell lines established from the human breast carcinoma (MCF-7) and the human melanoma (Arn8) cell lines were cultured in Dubecco's Modified Eagle Medium (DMEM) supplemented with 10% foetal bovine serum.
Effects of prepared compounds on activation of p53 protein were analysed in human melanoma cell line Arn8. […] The total β-galactosidase activity in Arn8 cells was quantified using a fluorimetric assay.

CDK2/cyclin E = target: T1, CDK2/cyclin E (Homo sapiens, UniProt P24941); experiment: CDK2/cyclin E kinase inhibition assay; type: biochemical; details: kinase inhibitory activity, 15 μM ATP, histone substrate
T1 construct: made in house; host or cells: Sf9 insect cells, baculovirus co-infection
Experimental: (§1) Selected compounds were tested for CDK1/cyclin B, CDK2/cyclin E, CDK5/p25, CDK7/cyclin H and CDK9/cyclin T inhibitory activity to determine the basic relationships between their structure and the inhibitory activity. Cdk/cyclin complexes were expressed in Sf9 cells co-infected with appropriate baculoviral construct. The cells were harvested 70 hours post infection in lysis buffer (50 mM Tris pH 7.4, 150 mM NaCl, 5 mM EDTA, 20 mM NaF, 1% Tween 20, protease inhibitors) for 30 min on ice and the soluble fraction was recovered by centrifugation at 14.000 g for […]. The protein extract was stored at −80° C. until use. The final point test system for kinase activity measurement was used to carry out experiments on the kinetics under linear conditions. […] ATP and tested compound in a final volume of 20 μl, all in reaction buffer: 50 mM Hepes pH 7.4, 10 mM MgCl2, 5 mM EGTA, 10 mM 2-glycerolphosphate, 1 mM NaF, 1 mM DTT and protease inhibitors. After 30 min, the incubations were stopped by adding 5% H3PO4 and then the proteins were separated by phosphocellulose binding. The measurement of kinase inhibition employed the digital imaging analyzer BAS 1800. The kinase activity was expressed as a percentage of maximum activity and the IC50 value was determined by graphic analysis. The kinase activity is expressed as a percentage of maximum activity (FIG. 1).

[1] = system: K562 (human chronic myelogenous leukaemia); experiment: Calcein AM cytotoxicity assay, K562; type: cell-based; details: read-out: Cytotoxic activity IC50 (μM) K562
From the text: (§2) Cytotoxicity of the compounds is the major property determining their anticancer effect in vivo. One of the parameters used, as the basis for cytotoxicity assays, is the metabolic activity of viable cells. For example, a microtiter assay, which uses the Calcein AM, is now widely used to quantitate cell proliferation and cytotoxicity. For instance, this assay is used in drug screening programs and in chemosensitivity testing. Because only metabolically active cells cleave Calcein AM, these assays detect viable cells exclusively. The quantity of cleaved Calcein AM corresponds to the number of vital cells in the culture. We have been using the following cell lines: MCF7 (human breast adenocarcinoma), K562 (human chronic myelogenous leukaemia), HOS (human osteogenic sarcoma), HeLa (human cervical carcinoma), HL 60 (human promyelocytic leukaemia), G 361 (human malignant melanoma), CEM (human lymphoblastoid leukaemia). All cell lines were grown in DMEM medium (Gibco BRL) supplemented with 10% (v/v) fetal bovine serum and L-glutamine and maintained at 37° C. in a humidified atmosphere with 5% CO2. For cytotoxicity assays, 10^4 cells were seeded into each well of 96 well plate, allowed to stabilize for at least 2 h and then tested compounds were added at various concentrations ranging from 100 to 0.1 μM in triplicates. Three days after drug addition Calcein AM solution (Molecular Probes) was added and let to enter the cells for 1 hour. Fluorescence of viable cells was quantified using Fluoroskan Ascent (Microsystems).

CDK9/cyclin T = target: T2, CDK9/cyclin T (Homo sapiens, UniProt P50750); experiment: CDK9/cyclin T kinase inhibition assay; type: biochemical; details: kinase inhibitory activity, 15 μM ATP, (YSPTSPS)3 peptide substrate
T2 construct: made in house; host or cells: Sf9 insect cells, baculovirus co-infection
T2 sequence (P50750 whole entry, species assumed): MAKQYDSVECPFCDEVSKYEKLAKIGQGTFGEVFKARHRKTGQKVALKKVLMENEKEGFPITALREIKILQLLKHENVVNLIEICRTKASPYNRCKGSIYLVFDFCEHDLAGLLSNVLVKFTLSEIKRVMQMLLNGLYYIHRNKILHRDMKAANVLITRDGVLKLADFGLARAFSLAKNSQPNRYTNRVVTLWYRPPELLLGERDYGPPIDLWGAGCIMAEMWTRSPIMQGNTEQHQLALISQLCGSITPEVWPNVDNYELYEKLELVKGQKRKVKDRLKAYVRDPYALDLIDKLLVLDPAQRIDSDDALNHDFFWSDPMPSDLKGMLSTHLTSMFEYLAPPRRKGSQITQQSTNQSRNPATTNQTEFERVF
T2 sequence (O60563 whole entry partner, species assumed): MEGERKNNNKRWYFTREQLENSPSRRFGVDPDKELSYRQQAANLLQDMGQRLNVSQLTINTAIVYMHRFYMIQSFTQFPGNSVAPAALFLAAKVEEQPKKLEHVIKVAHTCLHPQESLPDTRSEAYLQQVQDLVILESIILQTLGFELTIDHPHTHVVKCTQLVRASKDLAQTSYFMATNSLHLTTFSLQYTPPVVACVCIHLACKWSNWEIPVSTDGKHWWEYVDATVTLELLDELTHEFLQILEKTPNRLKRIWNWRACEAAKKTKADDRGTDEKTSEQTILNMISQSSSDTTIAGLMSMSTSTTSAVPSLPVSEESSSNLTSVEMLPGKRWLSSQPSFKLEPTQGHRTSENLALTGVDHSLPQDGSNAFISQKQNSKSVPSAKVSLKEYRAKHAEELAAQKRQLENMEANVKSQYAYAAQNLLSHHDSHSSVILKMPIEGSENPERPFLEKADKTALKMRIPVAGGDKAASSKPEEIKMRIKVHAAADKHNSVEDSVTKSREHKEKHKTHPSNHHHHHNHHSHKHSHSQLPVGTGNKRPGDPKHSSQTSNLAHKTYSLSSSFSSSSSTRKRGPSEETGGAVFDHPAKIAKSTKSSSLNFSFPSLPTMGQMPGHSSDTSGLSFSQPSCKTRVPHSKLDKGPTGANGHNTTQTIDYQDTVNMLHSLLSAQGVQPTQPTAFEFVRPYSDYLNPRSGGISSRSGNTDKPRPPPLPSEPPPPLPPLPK
Experimental: as §1

[2] = system: HOS (human osteogenic sarcoma); experiment: Calcein AM cytotoxicity assay, HOS; type: cell-based; details: read-out: Cytotoxic activity IC50 (μM) HOS
From the text: as §2

[3] = system: MCF7 (human breast adenocarcinoma); experiment: Calcein AM cytotoxicity assay, MCF7; type: cell-based; details: MCF7, read-out: Cytotoxic activity IC50 (μM) MCF7
From the text: as §2

Structure (SMILES): COc1cccc(CNc2nc(NC3CCC(N)CC3)nc3c2ncn3C(C)C)c1O (mixture of isomers) [Compound 126, (E/Z)—N^2-(4-aminocyclohexyl)-N^6-(2-hydroxy-3-methoxybenzyl)-9-isopropyl-9H-purin-2,6-diamine]
- IC50 (β-adrenergic receptors): 4 ± 1 µM
- EFFECT (modulation of the activity of β-adrenergic receptors) (β-adrenergic receptors): inhibition
- p53 (effect): induction of p53 protein (p53): ++
- p53 (peak concentration in μM) (p53): 11.0 µM

Structure (SMILES): CCC(CO)Nc1nc(NCc2cc(Cl)ccc2O)c2ncn(C(C)C)c2n1 (stereo not drawn) [Compound 79]
- EFFECT: fold activation (modulation of the activity of β-adrenergic receptors) (β-adrenergic receptors): 1.5-fold activation
- p53 (effect): induction of p53 protein (p53): ++
- p53 (peak concentration in μM) (p53): 8.0 µM
- IC50 (CDK2/cyclin E): 0.07 µM
- IC50 ([1]; Homo sapiens): 11.9 µM
- IC50 (CDK9/cyclin T): 0.04 µM
- IC50 ([2]; Homo sapiens): 5.3 µM
- IC50 ([3]; Homo sapiens): 3.5 µM

Structure (SMILES): CC(C)C(CO)Nc1nc(NCc2cc(Cl)ccc2O)c2ncn(C(C)C)c2n1 (stereo not drawn) [Compound 80]
- EFFECT: fold activation (modulation of the activity of β-adrenergic receptors) (β-adrenergic receptors): 1.8-fold activation
- IC50 (CDK2/cyclin E): 0.06 µM
- IC50 (CDK9/cyclin T): 0.05 µM

Structure (SMILES): CC(C)n1cnc2c(NCc3cc(Cl)ccc3O)nc(NCC(C)(C)O)nc21 [Compound 81]
- EFFECT: fold activation (modulation of the activity of β-adrenergic receptors) (β-adrenergic receptors): 1.7-fold activation
- IC50 (CDK2/cyclin E): 0.03 µM
- IC50 (CDK9/cyclin T): 0.02 µM

Structure (SMILES): CC(C)n1cnc2c(NCc3cc(F)ccc3O)nc(NC3CCCCC3N)nc21 (stereo not drawn) [Compound 86]
- IC50 (β-adrenergic receptors): 8 ± 2 µM
- EFFECT (modulation of the activity of β-adrenergic receptors) (β-adrenergic receptors): inhibition
- IC50 (CDK2/cyclin E): 0.04 µM
- IC50 ([1]; Homo sapiens): 7.6 µM
- IC50 (CDK9/cyclin T): 0.02 µM
- IC50 ([2]; Homo sapiens): 3.2 µM
- IC50 ([3]; Homo sapiens): 1.8 µM

Structure (SMILES): CCC(CO)Nc1nc(NCc2cc(F)ccc2O)c2ncn(C(C)C)c2n1 (stereo not drawn) [Compound 89]
- EFFECT: fold activation (modulation of the activity of β-adrenergic receptors) (β-adrenergic receptors): 1.9-fold activation
- p53 (effect): induction of p53 protein (p53): ++
- p53 (peak concentration in μM) (p53): 6.0 µM
- IC50 (CDK2/cyclin E): 0.05 µM
- IC50 ([1]; Homo sapiens): 14.7 µM
- IC50 (CDK9/cyclin T): 0.02 µM
- IC50 ([2]; Homo sapiens): 5.3 µM
- IC50 ([3]; Homo sapiens): 3.2 µM

Structure (SMILES): Cc1cccc(CNc2nc(NC3CCCCC3N)nc3c2ncn3C(C)C)c1O (stereo not drawn) [Compound 105]
- IC50 (β-adrenergic receptors): 12 ± 4 µM
- EFFECT (modulation of the activity of β-adrenergic receptors) (β-adrenergic receptors): inhibition

Structure (SMILES): Cc1ccc(O)c(CNc2nc(NC3CCC(N)CC3)nc3c2ncn3C(C)C)c1 (stereo not drawn) [Compound 106]
- IC50 (β-adrenergic receptors): 7 ± 2 µM
- EFFECT (modulation of the activity of β-adrenergic receptors) (β-adrenergic receptors): inhibition

Structure (SMILES): CCC(CO)Nc1nc(NCc2cc(C)ccc2O)c2ncn(C(C)C)c2n1 (stereo not drawn) [Compound 107]
- p53 (effect): induction of p53 protein (p53): ++
- p53 (peak concentration in μM) (p53): 6.0 µM
- IC50 (CDK2/cyclin E): 0.02 µM
- IC50 ([1]; Homo sapiens): 24.9 µM
- IC50 ([2]; Homo sapiens): 18 µM
- IC50 ([3]; Homo sapiens): 6.6 µM

Structure (SMILES): CCC(CO)Nc1nc(NCc2ccc(O)cc2O)c2ncn(C(C)C)c2n1 (stereo not drawn) [Compound 119]
- EFFECT: fold activation (modulation of the activity of β-adrenergic receptors) (β-adrenergic receptors): 1.6-fold activation
- p53 (effect): induction of p53 protein (p53): +
- p53 (peak concentration in μM) (p53): 12.0 µM
- IC50 (CDK2/cyclin E): 0.08 µM
- IC50 ([1]; Homo sapiens): 13 µM
- IC50 (CDK9/cyclin T): 0.05 µM
- IC50 ([2]; Homo sapiens): 8.1 µM
- IC50 ([3]; Homo sapiens): 4.3 µM

Structure (SMILES): CCC(CO)Nc1nc(NCc2cc(O)cc(O)c2)c2ncn(C(C)C)c2n1 (stereo not drawn) [Compound 123]
- EFFECT: fold activation (modulation of the activity of β-adrenergic receptors) (β-adrenergic receptors): 1.7-fold activation
- p53 (effect): induction of p53 protein (p53): +
- p53 (peak concentration in μM) (p53): 11.0 µM
- IC50 [1]: 5.3 µM
- IC50 [2]: 3.7 µM
- IC50 [3]: 3.2 µM

Structure (SMILES): CC(C)C(CO)Nc1nc(NCc2cc(O)ccc2O)c2ncn(C(C)C)c2n1 (stereo not drawn) [Compound 124]
- EFFECT: fold activation (modulation of the activity of β-adrenergic receptors) (β-adrenergic receptors): 2.1-fold activation

Structure (SMILES): COc1cccc(CNc2nc(NC3CCCCC3N)nc3c2ncn3C(C)C)c1O (stereo not drawn) [Compound 125]
- IC50 (β-adrenergic receptors): 2 µM
- EFFECT (modulation of the activity of β-adrenergic receptors) (β-adrenergic receptors): inhibition
- p53 (effect): induction of p53 protein (p53): ++
- p53 (peak concentration in μM) (p53): 10.0 µM
- IC50 (CDK2/cyclin E): 0.02 µM
- IC50 ([1]; Homo sapiens): 10.9 µM
- IC50 ([3]; Homo sapiens): 3.2 µM

Structure (SMILES): Cn1cnc2c(NCc3ccccc3)nc(NCCO)nc21 [OC]
- IC50 (μM) (modulation of the activity of β-adrenergic receptors) (β-adrenergic receptors): inactive
- EFFECT (modulation of the activity of β-adrenergic receptors) (β-adrenergic receptors): inactive
- IC50 [1]: 163 µM
- IC50 [3]: 133 µM

From patent US8492391B2, “Substituted 6-(2-hydroxybenzylamino)purine derivatives, their use as medicaments and compositions containing these derivatives” (Univerzita Palackeho V Olomouci, priority 2009, dated 2013)
